Laboratory results from patent US20230382923A1, “FUSED TETRACYCLIC QUINAZOLINE DERIVATIVES AS INHIBITORS OF ERBB2” (EnLiven Therapeutics, Inc., priority 2021, published 2023).
Where a name gives a salt, the structure may show the parent alone. Read-outs that look alike come from different tables or passages of the source.

Key:
Ba/F3 ERBB2 YVMA = assay: Cell viability assay (CellTiter Glo, 72 hours); format: cell-based, mouse; details: Mus musculus, BaF3, 72 h
Procedure: Cells were treated with compounds, and cell viability was measured as a metric of kinase inhibition.
BT-474, A431, MDA-MB-175VII, NCI-H1781, MCF7, and Ba/F3 cell lines were tested. The Ba/F3 cell line is IL-3-dependent mouse cell line derived from the C3H mouse strain. Ba/F3 cell lines were engineered to express human ERBB2 or EGFR kinases, rendering the cells IL-3 independent. The lines were generated via retroviral transduction utilizing a Moloney murine leukemia virus (MMLV) promoter, and constructs are stably integrated into the cell genome. The sequences of the ERBB2 and EGFR genes used were NCBI Reference Sequences NM_004448.3 and NM_005228.3, respectively.
BT-474, A431, MDA-MB-175VII, NCI-H1781 and MCF7 cells were grown in the appropriate growth medium as described in Table B2 below, and harvested at 50-80% confluence. BT-474, A431, MDA-MB-175VII, NCI-H1781 and MCF7 cells were counted and seeded at 2,000 or 1,500 cells per well in 384-well tissue culture plates (see Table B2). Similarly, Ba/F3 cell lines engineered to express EGFR, ERBB2, or ERBB2 mutants were grown, harvested, counted and seeded at 3000 cells per well in 96-well plates. A subset of wells contained media only (low control, “LC”).
Table B1 provides the growth media and number of cells seeded per well for the each cell line.
Compounds were dissolved in DMSO and serially diluted. Serially-diluted compound or a DMSO only control (high control, “HC”) was added to the plated cells in each well. Compounds were tested at concentrations of about 10 μM to 0.51 nM, using three-fold dilutions. The final proportion of DMSO never exceeded 0.1%.
Plates were placed in a 37° C., 5% CO2 incubator for 72 hours. Plates were then removed from the incubator and equilibrated for 15 minutes at room temperature. 40 μl of CellTiter Glo reagent (Promega) was added to measure the relative level of metabolically active cells by quantifying intracellular ATP concentrations. Plates were incubated for 30 minutes at room temperature, and luminescence was measured. Percent viability was normalized to a vehicle control only using the following formula: % viability=100×(LumSample−LumLC)/(LumHC−LumLC). Graphical curves were fitted using a nonlinear regression model with a sigmoidal dose response.

[1] = target: phosphorylated EGFR (pEGFR) (Homo sapiens (Human), UniProt P00533); assay: Detection of phosphorylated EGFR (pEGFR) by AlphaLISA in A431 cells; format: cell-based; details: A431 cells (10% FBS), 4 hours incubation, EGF 30 ng/mL for 10 minutes
In short: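 A431 cells in 10% FBS exposed to compound for 4 h at 37 °C, then stimulated 10 min with 30 ng/mL EGF. Lysates assayed for phospho-EGFR by AlphaLISA. % inhibition relative to DMSO and staurosporine controls; IC50 from four-parameter curve fit.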

[2] = target: phosphorylated ERBB2 (pERBB2) (Homo sapiens (Human), UniProt P04626); assay: Detection of phosphorylated ERBB2 (pERBB2) by ELISA in BT-474 cells; format: cell-based; details: four hours incubation with compound
In short: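 BT-474 cells were exposed to serially diluted compounds for 4 h at 37 °C, then lysed. Phospho-ERBB2 in lysates was captured by ELISA and detected with an HRP anti-phosphotyrosine antibody and TMB.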

[3] = read-out: Ba/F3 ERBB2 YVMA, IC50, nM

phosphorylated EGFR (pEGFR), sequence (P00533 25-1210): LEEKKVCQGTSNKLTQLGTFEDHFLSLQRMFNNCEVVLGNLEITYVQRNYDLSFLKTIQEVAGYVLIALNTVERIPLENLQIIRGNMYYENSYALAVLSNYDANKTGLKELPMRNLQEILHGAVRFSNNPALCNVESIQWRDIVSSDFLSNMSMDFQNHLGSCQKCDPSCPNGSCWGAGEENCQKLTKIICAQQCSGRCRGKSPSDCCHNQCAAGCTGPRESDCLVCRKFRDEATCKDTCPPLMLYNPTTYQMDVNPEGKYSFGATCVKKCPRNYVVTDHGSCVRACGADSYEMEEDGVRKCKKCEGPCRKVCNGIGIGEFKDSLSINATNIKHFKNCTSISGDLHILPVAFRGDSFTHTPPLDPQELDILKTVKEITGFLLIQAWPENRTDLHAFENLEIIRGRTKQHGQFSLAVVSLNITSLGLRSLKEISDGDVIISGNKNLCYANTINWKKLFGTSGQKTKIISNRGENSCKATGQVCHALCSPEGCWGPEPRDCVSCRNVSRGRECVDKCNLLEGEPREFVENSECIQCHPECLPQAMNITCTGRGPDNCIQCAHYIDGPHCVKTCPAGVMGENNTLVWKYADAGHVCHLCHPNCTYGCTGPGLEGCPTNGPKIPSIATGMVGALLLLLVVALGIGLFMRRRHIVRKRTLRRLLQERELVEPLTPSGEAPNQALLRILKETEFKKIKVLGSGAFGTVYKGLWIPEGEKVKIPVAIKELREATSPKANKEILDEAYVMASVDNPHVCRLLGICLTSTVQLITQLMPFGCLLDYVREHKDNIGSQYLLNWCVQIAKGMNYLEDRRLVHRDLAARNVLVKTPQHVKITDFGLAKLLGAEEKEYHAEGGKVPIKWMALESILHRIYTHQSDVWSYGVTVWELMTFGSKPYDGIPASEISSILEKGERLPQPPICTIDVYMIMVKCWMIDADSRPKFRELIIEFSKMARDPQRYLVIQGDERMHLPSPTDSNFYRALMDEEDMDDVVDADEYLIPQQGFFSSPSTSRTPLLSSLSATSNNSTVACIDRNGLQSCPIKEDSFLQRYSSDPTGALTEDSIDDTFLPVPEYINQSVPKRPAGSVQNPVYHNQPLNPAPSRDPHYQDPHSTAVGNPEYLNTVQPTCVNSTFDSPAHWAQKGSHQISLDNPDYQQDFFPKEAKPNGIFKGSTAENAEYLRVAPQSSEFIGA
phosphorylated ERBB2 (pERBB2), sequence (P04626 23-1255): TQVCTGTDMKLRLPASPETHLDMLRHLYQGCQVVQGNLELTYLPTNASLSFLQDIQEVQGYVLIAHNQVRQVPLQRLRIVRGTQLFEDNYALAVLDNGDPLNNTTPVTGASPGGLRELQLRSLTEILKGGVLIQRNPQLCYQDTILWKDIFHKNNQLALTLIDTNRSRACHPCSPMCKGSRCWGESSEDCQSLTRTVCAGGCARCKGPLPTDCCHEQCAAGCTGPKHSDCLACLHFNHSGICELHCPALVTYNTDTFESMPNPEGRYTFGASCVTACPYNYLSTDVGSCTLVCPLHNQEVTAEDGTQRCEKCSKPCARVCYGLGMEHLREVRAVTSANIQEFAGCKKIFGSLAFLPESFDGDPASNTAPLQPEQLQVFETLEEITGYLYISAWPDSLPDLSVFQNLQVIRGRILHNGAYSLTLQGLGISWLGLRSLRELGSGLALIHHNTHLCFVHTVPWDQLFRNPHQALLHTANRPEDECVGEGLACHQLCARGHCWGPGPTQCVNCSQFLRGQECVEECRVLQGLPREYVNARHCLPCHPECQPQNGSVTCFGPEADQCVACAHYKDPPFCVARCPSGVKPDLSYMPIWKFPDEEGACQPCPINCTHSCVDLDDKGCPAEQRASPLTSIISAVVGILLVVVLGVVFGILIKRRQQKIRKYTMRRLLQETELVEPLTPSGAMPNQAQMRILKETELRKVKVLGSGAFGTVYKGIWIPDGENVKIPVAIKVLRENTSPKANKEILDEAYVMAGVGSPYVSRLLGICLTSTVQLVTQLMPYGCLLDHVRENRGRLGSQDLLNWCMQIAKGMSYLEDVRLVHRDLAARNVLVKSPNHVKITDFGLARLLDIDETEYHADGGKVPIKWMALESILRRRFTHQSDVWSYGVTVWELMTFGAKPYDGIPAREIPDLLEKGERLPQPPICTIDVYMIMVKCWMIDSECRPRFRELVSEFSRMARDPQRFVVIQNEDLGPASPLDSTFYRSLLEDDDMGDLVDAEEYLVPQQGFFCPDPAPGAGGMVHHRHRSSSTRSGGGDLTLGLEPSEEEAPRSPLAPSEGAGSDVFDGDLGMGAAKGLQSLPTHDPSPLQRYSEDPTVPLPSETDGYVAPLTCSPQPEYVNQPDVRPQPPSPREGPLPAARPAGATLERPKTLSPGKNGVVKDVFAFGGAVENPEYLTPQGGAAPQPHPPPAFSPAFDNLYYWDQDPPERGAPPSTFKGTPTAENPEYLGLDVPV

SMILES	IC50 (Ba/F3 ERBB2 YVMA; [3])	IC50 [1]	IC50 [2]	IC50 (Ba/F3 ERBB2 YVMA; Ba/F3 cells engineered to express human ERBB2 YVMA mutant, 72 hours, CellTiter Glo viability, read-out: Ba/F3 ERBB2 YVMA, IC50)
Cc1cc(Nc2ncnc3cc4c(nc23)N2CCN(C(=O)/C=C/CN3CCC3)C(CO4)C2)ccc1Oc1ccn2ncnc2c1 (stereo in doubt) [Compound 26, (E)-1-((10S)-4-((4-([1,2,4]triazolo[1,5-a]pyridin-7-yloxy)-3-methylphenyl)amino)-7,8,10,11-tetrahydro-9H-6,10-methanopyrimido[4′,5′:5,6]pyrido[3,2-b][1,4,7]oxadiazonin-9-yl)-4-(azetidin-1-yl)but-2-en-1-one]	24.9 nM	> 10000 nM	41.1 nM	–
Cc1cc(Nc2ncnc3cc4c(nc23)N2CCN(C(=O)/C=C/[C@H](C)N(C)C)C(CO4)C2)ccc1Oc1ccn2ncnc2c1 (stereo in doubt) [Compound 30, (4S,E)-1-((10S)-4-((4-([1,2,4]triazolo[1,5-a]pyridin-7-yloxy)-3-methylphenyl)amino)-7,8,10,11-tetrahydro-9H-6,10-methanopyrimido[4′,5′:5,6]pyrido[3,2-b][1,4,7]oxadiazonin-9-yl)-4-(dimethylamino)pent-2-en-1-one]	–	> 10000 nM	10.6 nM	10.5 nM
C=CC(=O)N1CCN2CC1COc1cc3ncnc(Nc4ccc(Oc5ccn6ccnc6c5)c(C)c4)c3nc12 (stereo in doubt) [Compound 33, 1-((10S)-4-((4-(imidazo[1,2-a]pyridin-7-yloxy)-3-methylphenyl)amino)-7,8,10,11-tetrahydro-9H-6,10-methanopyrimido[4′,5′:5,6]pyrido[3,2-b][1,4,7]oxadiazonin-9-yl)prop-2-en-1-one]	12 nM	164 nM	16.8 nM	–
[2H]C([2H])([2H])N(C/C=C/C(=O)N1CCN2CC1COc1cc3ncnc(Nc4ccc(Oc5ccn6ncnc6c5)c(C)c4)c3nc12)C([2H])([2H])[2H] (stereo in doubt) [Compound 36, (E)-1-((10S)-4-((4-([1,2,4]triazolo[1,5-a]pyridin-7-yloxy)-3-methylphenyl)amino)-7,8,10,11-tetrahydro-9H-6,10-methanopyrimido[4′,5′:5,6]pyrido[3,2-b][1,4,7]oxadiazonin-9-yl)-4-(bis(methyl-d3)amino)but-2-en-1-one formic acid]	6.19 nM	1620 nM	9.92 nM	–
CNC/C=C/C(=O)N1CCN2CC1COc1cc3ncnc(Nc4ccc(Oc5ccn6ncnc6c5)c(C)c4)c3nc12 (stereo in doubt) [Compound 37, (E)-1-((10S)-4-((4-([1,2,4]triazolo[1,5-a]pyridin-7-yloxy)-3-methylphenyl)amino)-7,8,10,11-tetrahydro-9H-6,10-methanopyrimido[4′,5′:5,6]pyrido[3,2-b][1,4,7]oxadiazonin-9-yl)-4-(methylamino)but-2-en-1-one formate]	52.3 nM	3620 nM	28 nM	–
CCc1ccc(Oc2ccc(Nc3ncnc4cc5c(nc34)N3CCN(C(=O)/C=C/CN(C)C)C(CO5)C3)cc2C)cn1 (stereo in doubt) [Compound 38, (E)-4-(dimethylamino)-1-((10S)-4-((4-((6-ethylpyridin-3-yl)oxy)-3-methylphenyl)amino)-7,8,10,11-tetrahydro-9H-6,10-methanopyrimido[4′,5′:5,6]pyrido[3,2-b][1,4,7]oxadiazonin-9-yl)but-2-en-1-one formic acid]	11.8 nM	3080 nM	126 nM	–
[2H]C([2H])([2H])N(C/C=C/C(=O)N1CCN2CC1COc1cc3ncnc(Nc4cc(C)c(Oc5ccn6ncnc6c5)cc4F)c3nc12)C([2H])([2H])[2H] (stereo in doubt) [Compound 46, (E)-1-((10S)-4-((4-([1,2,4]triazolo[1,5-a]pyridin-7-yloxy)-2-fluoro-5-methylphenyl)amino)-7,8,10,11-tetrahydro-9H-6,10-methanopyrimido[4′,5′:5,6]pyrido[3,2-b][1,4,7]oxadiazonin-9-yl)-4-(bis(methyl-d3)amino)but-2-en-1-one]	7.04 nM	2470 nM	6.84 nM	–
